# According to patent US20230107770A1, “METHOD OF ENHANCING IMMUNOTHERAPY USING ER STRESS PATHWAY INHIBITORS” (H. LEE MOFFITT CANCER CENTER AND RESEARCH INSTITUTE, INC., priority 2020, published 2023):
# Experiments:
# tumor-MDSC = assay: Ex vivo suppression assay: tumor-MDSC co-cultured with primed CFSE-labeled T cells; type: cell-based, mice; conditions: tumor-MDSC (1:1/4) from B16-bearing mice; AMG-44 12 mg/kg
# Procedure: CD3^+ T cells were enriched using mouse or human T cell negative selection kits (MagniSort, Invitrogen) from the spleen and lymph nodes of C57BL/6 mice; or from purchased human buffy-coat units (One-Blood, Tampa, Fla.). Purity ranged between 95% and 99% as tested by flow cytometry. For antigen-specific priming studies, CD8^+ T cells were enriched using negative selection kits from the spleens of OT-I mice previously activated with OVA257-264 (SIINFEKL) for 48 hours. Tumor-MDSC were isolated from cellular suspensions of digested tumors followed by positive selection (MojoSort Streptavidin Nanobeads, Biolegend) using anti-Gr1 (Clone RB6-8C5, eBioscience) or anti-CD11b-biotinylated antibodies (Clone M1/70, StemCell Technologies, Vancouver). Also, M-MDSC (CD11b^+Gr1^+Ly6G^lowLy6C^high), PMN-MDSC (CD11b^+Gr1^+Ly6G^+Ly6C^low), macrophages (CD11b^+Gr1^negF4/80^+CD11c^neg), and myeloid DCs (CD11b^+Gr1^negF4/80^negCD11c^+) were sorted from tumors in a FACSAriaII (BD Biosciences).
# (§1) Murine BM-MDSC (ratio 1:1/8) or tumor-MDSC (ratio 1:1/4) were co-cultured with negatively selected CD3^+ T cells in a 96 well plate bound α-CD3 and α-CD28 (1 μg/ml each, eBioscience) for 3 days. T cell proliferation was assessed with Carboxyfluorescein succinimidyl ester (CFSE) or Cell-trace violet (Invitrogen) dye dilution detected by flow cytometry. For human studies, MDSC were co-cultured with enriched CD3^+ T cells activated with soluble α-CD3 (1 μg/ml, clone OKT3) and α-CD28 (0.5 μg/ml, clone L293) for 3 days in a 96 well plate bound with goat anti-mouse IgG (10 μg/ml). Results are expressed as percentage of proliferating T cells, determined by the dilution of fluorescence compared with non-stimulated T cells.
# CD8+ TILs = assay: Flow cytometry of tumor-infiltrating CD8+ T cells from treated mice; type: in vivo
# Procedure: All analysis was performed using FlowJo version 11 software.
# [1] = tested on: FSHR+-ID8-Defb29/Vegfa ovarian tumors; assay: ER stress-targeting therapy combined with FSH-CER T cells in ovarian tumor-bearing mice; type: in vivo; conditions: MKC8866 i.p. 300 mg/kg or AMG-44 i.p. 12 mg/kg daily for one week; FSH-CER T cells days 7 and 14
# Procedure: The role of the PERK-Chop in the expansion of tumor TRM cells using conditional T cell Chop-null mice was evaluated. In agreement with the inhibitory effect of Chop in TRM development, higher frequency of TRM cells was detected in tumors from T cell-Chop^KO mice compared to controls (FIG. 23A). Next, we tested the effect of the inhibition of PERK (AMG-44) and IRE 1α (MKC8866) during the expansion of IL-2-supplemented human FSH-CER T cells. […] Also, we evaluated the therapeutic effect of the combination of ER stress-targeting therapy and FSH-CER. […]
# Activation of the UPR in cancer cells mediates adaptation processes in the TME, whereas UPR priming in tumor-myeloid cells promotes their immunoregulatory activity. […] As main readouts of therapeutic efficacy, we will monitor tumor burden, overall survival, and tumor CER-T cell infiltration, persistence, and cytotoxic capacity (Exp. C.2.1.1). […] Additionally, we will sort DCs and MDSC from tumor sites and lymphoid organs to quantify the expression of ER stress gene markers, their ability to impair T cell proliferation and IFNγ production, and the levels of the UPR-related immunoinhibitory factors IL-6, PGE2, Cox-2, mPGES-1, and Arginase I. All required methods are established by our groups. […]
# murine BM-MDSC = assay: In vitro suppression assay with murine BM-MDSC; type: cell-based, mouse
# Procedure: Mouse BM-MDSC were generated after culturing BM precursors with GM-CSF and G-CSF (20 ng/ml each) for 4 days. In vitro generated MDSC were treated with either LLC tumor explant supernatants (TES, since day 0) or Thaps (200 nM, for the last 24 hours of culture). Human BM-MDSC were developed after culturing BM or peripheral blood precursors from healthy donors with GM-CSF and IL-6 (10 ng/ml each) for a period of 6 days (Thevenot et al., 2014). To induce UPR activation, MDSC were treated with either supernatants from renal cell carcinoma cells 786-0 (hTES) for 6 days (Rodriguez et al., 2009) or Thaps during the last 24 hours before collection (200 nM). In some experiments, MDSC were pre-incubated for 3 hours with Resveratrol (100 μM, Sigma-Aldrich), D,L-Sulphoraphane (20 μM), AMG-44 (5 μM), or TUDCA (500 nM) before treating with Thaps.
# as §1
smiles,measurement,setting,value
Cc1ccc2cc(-c3c(C)ccc(C(=O)c4c(-c5ccccc5)n(C)n(-c5ccccc5)c4=O)c3N)ccc2n1 [AMG-44],immunoinhibitory activity of tumor-MDSC,tumor-MDSC,impaired the immunoinhibitory activity of tumor-MDSC
same,tumor-infiltrating CD8+ T cells expressing IFNγ,"CD8+ TILs; B16-bearing mice, AMG-44 12 mg/kg",induced expansion
same,frequency of IFNγ-producing CD8+ T cells in tumors,"CD8+ TILs; B16, GSK2606414 25 mg/kg or AMG-44 12 mg/kg, 17 days post-tumor injection",amplified the frequency of IFNγ-producing CD8^+ T cells in tumors
same,survival of hosts receiving FSH-CER T cells plus inhibitor,[1],Prolonged survival
same,ability of Thaps-treated BM-MDSC to impair T cell proliferation,murine BM-MDSC; BM-MDSC (1:1/8) exposed 3 hours to 5 μM AMG-44,overcame the ability of Thaps-treated BM-MDSC to impair T cell proliferation
same,MDSC-baseline activity,murine BM-MDSC; control BM-MDSC exposed 3 hours to 5 μM AMG-44,without affecting MDSC-baseline activity
